Experiments:
Format in all cases: cell-based
[1] = tested on: Peripheral blood neutrophils; experiment: Neutrophil apoptosis, Giemsa stain and light microscopy; conditions: Homo sapiens, 20 hours culture, read-out: IC50 of inhibition of neutrophil apoptosis
Description: Neutrophils were cultured at 2×10^6 cells/ml for 20 h in RPMI1640 medium containing human serum and antibiotics and a range of concentrations of compound 10. Apoptosis was determined by differential Giemsa staining and light microscopy to determine cells with an apoptotic nuclear morphology. Data are mean±SD of 5 separate experiments.
Effects of the compounds on neutrophil apoptosis were also determined as an indication of utility in diseases where their survival is dysregulated such as systemic vasculitis and chronic inflammatory disease. Peripheral blood neutrophils were cultured for 20 hours in RPMI1640 medium containing 2% human AB serum, 2 mM L-glutamine and antibiotics (100 U/ml penicillin, […] streptomycin) and their apoptosis determined by staining with Giemsa stain and observing an apoptotic morphology by light microscopy (see Pongracz J et al. 1999, J. Biol. Chem. 274: 37329-37334). Compound 10 inhibited neurophil apoptosis with an IC50 of 1 μM (FIG. 4).

[2] = tested on: human umbilical vein endothelial cells (HUVEC); experiment: Neutrophil mediated damage to endothelial cells (HUVEC viability, trypan blue); set-up: death of HUVEC treated with TNF-primed neutrophils: dose or concentration left out as unconfirmed
Description: HUVEC were cultured to confluence in tissue culture plates and incubated overnight with neutrophils treated with 20 ng/ml TNFα (+TNF),
[…] Viable cells remain attached to the plastic wells and are visualised by phase contrast light microscopy. The image shown is representative of 3 separate experiments.
ANCA are predominantly IgG autoantibodies directed against constituents of primary granules of neutrophils (PR3 and MPO). ANCA associated vasculitis is the most common primary systemic small-vessel vasculitis in adults. The common pathology of this disease is focal necrotizing lesions of blood vessels and may affect different vessels and organs. […] Neutrophils were cultured for 10 hours in RPMI1640 medium containing 2% human AB serum, 2 mM L-glutamine and antibiotics (100 U/ml penicillin, […] streptomycin) and their apoptosis determined by staining with Giemsa stain and observing an apoptotic morphology by light microscopy. […] The ability of compound 10 to inhibit ANCA-induced neutrophil inflammatory functions was also determined Neutrophils were cultured in RPMI1640 medium containing 2% human AB serum, 2 mM L-glutamine and antibiotics (100 U/ml penicillin, […] streptomycin). […] ANCA stimulated degranulation of neutrophils was assessed by release of myeloperoxidase in to the medium over a 30 minute period, with MPO measured by ELISA. […]

β-adrenergic receptors = experiment: Isoproterenol-induced cAMP synthesis in rat C6 glioma (anti-inflammatory activity)
Description: Anti-inflammatory activity of several of the 2-substituted 6-benzylaminopurine riboside derivatives of this invention was determined; kinetin riboside was also evaluated as a control. Rat C6 glioma (ATCC No. CCL107) was cultivated in monolayer in serum-free chemically defined medium containing Ham's F10/minimal essential medium (1:1 v/v), 2 mM L-glutamine, 1% (v/v) minimal essential medium vitamins (100×), 1% (v/v) minimal essential medium nonessential amino acids (100×), 100 U/mL penicillin, […], and 30 nM sodium selenite. Incubation was performed at 37° C. in a humidified atmosphere. The assays were performed in the logaritmic growth phase at a density of 2.5×10^5 cells/cm^2.
Intracellular cAMP synthesis was induced by addition of 5 mM (−)-isoproterenol; various amounts of test compounds were added at the same time as the (−)-isoproterenol. After […] incubation at 37° C., the medium was removed and the cellular amount of cAMP was determined using the cAMP-enzyme immunoassay kit from Amersham. The I50 value was determined from a dose-response curve in duplicate. The effect of nine purine analogues was measured after simultaneous addition with isoproterenol.
As P2Y1-like and A2 purinergic receptors, negatively and positively coupled to adenylate cyclase respectively, are present on rat C6 glioma as to be determined if the modulation of the synthesis of cAMP is due to inhibition of the activation of β-adrenergic receptors by isoproterenol are due to activation of purinergic receptors.

In the case of COc1cccc(CNc2nc(Cl)nc3c2ncn3C2OC(CO)C(O)C2O)c1O (centres unmarked) [Compound 10, 2-Chloro-6-(2-hydroxy-3-methoxybenzylamino)purine riboside], the IC50 [1] is reported as 1 µM, the “HUVEC cell death in the presence of ANCA” value ([2]; ANCA-activated TNF primed-neutrophils, 24 h (90% without compound)) is reported as 50% and the “death of HUVEC treated with TNF-primed neutrophils” value ([2]; overnight / 24 h, without ANCA) is reported as “completely block the death of HUVEC”. For the same molecule, the “Effect (modulation of isoproterenol-induced cAMP synthesis)” value (β-adrenergic receptors; added simultaneously with (−)-isoproterenol) was “inhibition” and the IC50 (β-adrenergic receptors; cellular cAMP by enzyme immunoassay, dose-response curve in duplicate, read-out: I50) was 7.5 ± 1 µM.
